Data taken from patent US20030175314A1, “Pharmaceutical composition for dermal application” (priority 2001, published 2003).

Key:
solubility = format: physicochemical
Procedure: Cipamfylline has a pronounced inner crystal bonding resulting in a high melting point (about 310-312° C.) and some degree of hydrophobicity. […] On the other hand, effective delivery of the active component into the epidermis where it can exert its effect requires that the compound be present in a dissolved state in said composition.

atopic dermatitis = assay: phase II left/right study, cipamfylline cream vs vehicle or Locoid cream (Example 2); format: in vivo, Humans; details: for decrease of total severity score: 1 g twice daily, two weeks
Procedure: In a phase II, multi-centre, randomised, double-blind left/right study comparing cipamfylline cream 1.5 mg/g (formulation B) with the reference vehicle without cipamfylline and with Locoid cream 0.1% (hydrocortisone-17-butyrate 0.1% cream) in patients suffering from atopic dermatitis, patients were randomised to either group (1) cipamfylline cream 1.5 mg/g in reference vehicle vs vehicle or (2) cipamfylline cream 1.5 mg/g in reference vehicle vs Locoid cream. One g of each cream were applied twice daily for two weeks. A total number of 108 patients with a clinical diagnosis of atopic dermatitis, with symmetrical lesions of atopic dermatitis on their arms with a minimum score of 6 in the total severity score (ratings of erythema, oedema/papulation, oozing/crusting, excoriations and lichenification on a scale from 0-3) were included. Excluded were patients with suspected infection in the treatment areas, patients who were receiving other treatment for atopic dermatitis or who were pregnant or planning to become pregnant in the course of the study.

PDE4 = assay: in vitro PDE4 inhibition; format: biochemical; details: in vitro studies
Excerpt: (§1) The compound of formula I, 1,3-dicyclopropylmethyl-8-aminoxanthine, is also known by the proposed generic name cipamfylline. The compound and a method of its preparation is disclosed in U.S. Pat. No. 5,734,051 which is hereby incorporated by reference in its entirety.

[1] = system: secretion of proinflammatory cytokines such as tumour necrosis factor α (TNF-α), IL-10, IL-12 and IFN-γ; assay: in vitro secretion of proinflammatory cytokines; format: cell-based; details: in vitro studies
Excerpt: as §1

lymphocyte proliferation = assay: in vitro lymphocyte proliferation; format: cell-based; details: in vitro studies
Excerpt: as §1

[2] = format: physicochemical
Excerpt: More specifically, the solvent comprises a non-toxic glycol or glycol ether selected from the group consisting of propylene glycol, butylene glycol, diethylene glycol and diethylene glycol ether. […] The advantageous dissolution properties of propylene glycol may be explained by the solubility properties of this particular solvent, as determined by the Hildebrand solubility coefficient (J H Hildebrand and R L Scott, The Solubility of Non-Electrolytes, Reinhold, N.Y., 1949). […] Thus propylene glycol has a Hildebrand coefficient within ±2 units of that of cipamfylline which makes it an effective solvent for this active component.

skin = skin irritation by the solvent; format: in vivo; details: propylene glycol in itself
Excerpt: Apart from being a solvent for cipamfylline, propylene glycol as a secondary penetration enhancer, i.e. a substance which is capable of penetrating the stratum corneum and “draw” low-molecular components such as therapeutically active components in the vehicle into the epidermis. […] For this reason, propylene glycol has previously been thought to be unsuitable for inclusion as a solvent in compositions intended for the treatment of atopic dermatitis. However, the present vehicle has been specifically designed to exclude all excipients which are capable of penetrating into the epidermis (or being “drawn” into the epidermis by the solvent) and which are not essential for formulation purposes, resulting in a composition which, according to the clinical tests described in Example 3 herein, gives rise to fewer irritative reactions in skin on which the composition is applied compared to a conventional reference formulation. This, of course, is particularly important for dermal formulations intended for application on inflamed, and therefore highly irritated skin so as to avoid a painful burning sensation at the site of application and more long-term irritation such as pain or itching.

Row | SMILES | solubility (solubility; water) [µg/mL] | solubility with water as co-solvent (solubility; water present as a co-solvent in an amount of about 25% or more) | decrease of total severity score (atopic dermatitis; group (1) cipamfylline cream 1.5 mg/g (formulation B) vs vehicle, end of study) [%] | decrease of total severity score (atopic dermatitis; group (2) cipamfylline cream 1.5 mg/g (formulation B) vs Locoid cream 0.1%, end of treatment) [%] | patients with local adverse reactions (burning, stinging, pruritus) (atopic dermatitis; treated side, cipamfylline cream 1.5 mg/g vs vehicle) | inhibition of PDE4 (PDE4) | inhibition of the secretion of proinflammatory cytokines (TNF-α, IL-10, IL-12, IFN-γ) [1] | effect on lymphocyte proliferation (lymphocyte proliferation) | Hildebrand coefficient (solubility parameter δ) [2] | skin irritation (skin)
1 | Nc1nc2c([nH]1)c(=O)n(CC1CC1)c(=O)n2CC1CC1 [cipamfylline, 1,3-dicyclopropylmethyl-8-aminoxanthine] | < 50 | greatly decreased | 38 | 30 | 15 % of the patients | potent and selective inhibitor | inhibitor | no effect | about 13.4 (cal/cm^3)^1/2 | 
2 | CC(O)CO (centres unmarked) [propylene glycol] |  |  |  |  |  |  |  |  | about 14.8 (cal/cm^3)^1/2 | does not in itself give rise to any significant skin irritation
